Reference: ChEMBL document CHEMBL1201862, “PubChem BioAssay data set” (2004)
Counter-ions that a name gives are not always drawn. The source made the active and inactive calls.

Key:
[1] = cytotoxicity in HEK-293T cells, dose response, cytotoxicity control for BCR NF-kB inhibitor project, luminescence, B-cell screen hits (AID 489021); type: functional, cell-based;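 also: HEK-293T cells carrying an NF-kB luciferase reporter; cells exposed to compound for about 14 hours before viability readout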
[2] = target: T1, Neuropeptides B/W receptor type 1 (Homo sapiens, UniProt P48145); assay: Fluorescence-based dose response cell-based high throughput screening assay to identify antagonists of the G-protein coupled receptor 7 (GPR7). [Related pubchem assays: 1952 (Screening assay (GPR7 antagonists).), 1880 (Summary AID.)]; type: functional
T1 sequence (P48145 whole entry): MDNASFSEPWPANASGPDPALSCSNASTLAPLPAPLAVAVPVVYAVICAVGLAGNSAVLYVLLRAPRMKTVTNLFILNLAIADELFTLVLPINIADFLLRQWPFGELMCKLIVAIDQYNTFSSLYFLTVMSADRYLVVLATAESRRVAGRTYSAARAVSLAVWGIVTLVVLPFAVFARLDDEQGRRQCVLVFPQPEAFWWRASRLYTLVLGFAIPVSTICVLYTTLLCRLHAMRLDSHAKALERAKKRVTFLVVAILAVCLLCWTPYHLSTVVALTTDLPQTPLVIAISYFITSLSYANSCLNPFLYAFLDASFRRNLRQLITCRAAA

[3] = target: T2, Melanin-concentrating hormone receptor 1 (Homo sapiens, UniProt Q99705); assay: Fluorescence-based counterscreen for antagonists of the G-protein coupled receptor 7 (GPR7): cell-based high throughput dose response assay to identify antagonists of the melanin-concentrating hormone receptor 1 (MCHR1).; type: functional
[4] = system: BJ; assay: cytotoxicity toward BJ-TERT fibroblasts, dose response, cell-based, RAS-independent, luminescence (AID 1933); type: functional; conditions: Homo sapiens
[5] = target: T3, Streptokinase A (Streptococcus pyogenes serotype M1, UniProt P10520); assay: S. pyogenes streptokinase expression inhibitors, potency, dose response, plasminogen activation absorbance, OD405 (AID 1914); type: functional, Streptococcus pyogenes M1 GAS;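 also: secreted streptokinase activity via plasminogen activation per viability signal from cell pellet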
T3 sequence (P10520 whole entry): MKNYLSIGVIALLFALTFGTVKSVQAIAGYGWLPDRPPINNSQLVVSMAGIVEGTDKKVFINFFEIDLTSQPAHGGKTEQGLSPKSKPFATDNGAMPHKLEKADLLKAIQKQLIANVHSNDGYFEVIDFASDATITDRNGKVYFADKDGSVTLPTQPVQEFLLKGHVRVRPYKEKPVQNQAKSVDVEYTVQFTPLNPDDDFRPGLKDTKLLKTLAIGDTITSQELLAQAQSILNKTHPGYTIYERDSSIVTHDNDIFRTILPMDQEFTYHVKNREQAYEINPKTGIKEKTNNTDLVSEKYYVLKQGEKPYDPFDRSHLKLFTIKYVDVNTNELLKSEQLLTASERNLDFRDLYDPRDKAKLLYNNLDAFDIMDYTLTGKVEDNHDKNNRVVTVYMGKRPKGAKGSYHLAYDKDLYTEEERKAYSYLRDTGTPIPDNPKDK

[6] = system: Streptococcus; assay: Group A Streptococcus viability loss, dose response, counter-screen for streptokinase expression inhibitor project, luminescence, BacTiterGlo (AID 1915); type: functional, organism-based;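 also: potency for reduction of bacterial viability or growth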
[7] = target: T4, Voltage-gated N-type calcium channel alpha-1B subunit/Amyloid beta A4 precursor protein-binding family A member 1 (Homo sapiens, UniProt Q00975+Q02410); type: protein assay
[8] = system: Streptococcus sp. 'group A'; assay: growth inhibition of control SK(-) GAS strain, dose response, counter-screen for streptokinase expression inhibitor project, luminescence, kanamycin, BacTiterGlo, confirmation (AID 1900); type: functional, organism-based
[9] = target: T4, Voltage-gated N-type calcium channel alpha-1B subunit/Amyloid beta A4 precursor protein-binding family A member 1; type: protein assay; remark: listed apart in the source
[10] = system: BJ; assay: cells; type: functional, cell-based; conditions: Homo sapiens
[11] = cells; type: functional, cell-based; conditions: HEK-CNG
[12] = system: BJ; assay: cytotoxicity toward BJ-TERT-LT-ST fibroblasts, dose response, cell-based, RAS-independent, luminescence (AID 1935); type: functional; conditions: Homo sapiens;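 also: BJ fibroblasts immortalized with TERT plus LT and ST oncogenes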
[13] = target: T5, Galanin receptor type 3 (Homo sapiens, UniProt O60755); assay: Fluorescence-based cell-based primary high throughput dose response assay to identify antagonists of the Galanin Receptor 3 (GalR3).; type: functional
T5 sequence (O60755 whole entry): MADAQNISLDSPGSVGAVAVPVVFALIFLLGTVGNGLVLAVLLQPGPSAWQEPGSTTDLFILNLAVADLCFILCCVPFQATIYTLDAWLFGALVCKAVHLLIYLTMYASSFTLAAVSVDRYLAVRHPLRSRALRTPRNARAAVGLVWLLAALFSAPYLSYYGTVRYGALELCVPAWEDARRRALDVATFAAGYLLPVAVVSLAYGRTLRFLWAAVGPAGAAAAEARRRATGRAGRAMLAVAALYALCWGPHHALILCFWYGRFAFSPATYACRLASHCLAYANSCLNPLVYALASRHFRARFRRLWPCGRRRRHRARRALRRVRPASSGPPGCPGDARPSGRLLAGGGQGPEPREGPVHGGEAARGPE

[14] = cytotoxicity toward DRD oncogenic fibroblasts, dose response, cell-based, non-viral oncogenic, luminescence (AID 1934); type: functional; conditions: Homo sapiens
[15] = Luminescence Cell-Based Dose Retest to Confirm Inhibitors of Cancer Stem Cells. [Related pubchem assays (depositor defined):AID2717, AID2721]; type: functional; conditions: Homo sapiens
[16] = target: Trypsin (Sus scrofa, UniProt P00761); assay: porcine trypsin inhibitors, dose response, selectivity assay for Rce1 protease inhibitor project, biochemical, quenched peptide fluorescence, cherry-pick (AID 488789)
[17] = target: T6, CAAX prenyl protease 2 (Homo sapiens, UniProt Q9Y256); assay: human Rce1 protease inhibitors, dose response, biochemical, yeast membranes, quenched-peptide fluorescence, cherry-pick (AID 588849)
T6 sequence (Q9Y256 whole entry): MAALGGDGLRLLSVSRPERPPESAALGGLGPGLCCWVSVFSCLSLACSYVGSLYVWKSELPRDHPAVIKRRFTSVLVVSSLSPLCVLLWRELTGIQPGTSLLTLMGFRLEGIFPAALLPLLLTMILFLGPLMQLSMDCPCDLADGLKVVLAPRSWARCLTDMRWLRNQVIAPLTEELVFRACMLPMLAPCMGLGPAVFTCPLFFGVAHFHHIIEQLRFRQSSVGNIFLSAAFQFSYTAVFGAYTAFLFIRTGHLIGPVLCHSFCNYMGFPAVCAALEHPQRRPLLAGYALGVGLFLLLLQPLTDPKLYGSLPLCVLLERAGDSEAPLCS

[18] = target: T2, Melanin-concentrating hormone receptor 1; assay: Late-stage fluorescence-based counterscreen for antagonists of the G-protein coupled receptor 7 (GPR7): cell-based dose response assay to identify antagonists of the melanin-concentrating hormone receptor 1 (MCHR1). [Related pubchem assays (depositor defined):AID1861, AID1880, AID1952, AID2148, AID2251, AID2257, AID485339]; type: functional
[19] = system: CHO-K1; assay: Counterscreen for antagonists of the orexin 1 receptor (OX1R; HCRTR1): Homogeneous time resolved fluorescence (HTRF)-based cell-based dose response assay to identify antagonists of the parental CHO-K1 cell line. [Related pubchem assays (depositor defined):AID434989, AID435008, AID463079, AID485270, AID492963, AID492964, AID492965, AID493232, AID504699, AID504701]; type: functional; conditions: Cricetulus griseus;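 also: potency for inhibition of ATP-stimulated IP1 production as antagonists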
[20] = target: T7, Orexin/Hypocretin receptor type 1 (Homo sapiens, UniProt O43613); assay: Homogeneous Time Resolved Fluorescence (HTRF)-based cell-based high throughput dose response assay for antagonists of the orexin 1 receptor (OX1R; HCRTR1). [Related pubchem assays (depositor defined):AID434989, AID435008, AID463079, AID485270, AID492963, AID492964, AID492965, AID493232, AID504717, AID504718]; type: functional
T7 sequence (O43613 whole entry): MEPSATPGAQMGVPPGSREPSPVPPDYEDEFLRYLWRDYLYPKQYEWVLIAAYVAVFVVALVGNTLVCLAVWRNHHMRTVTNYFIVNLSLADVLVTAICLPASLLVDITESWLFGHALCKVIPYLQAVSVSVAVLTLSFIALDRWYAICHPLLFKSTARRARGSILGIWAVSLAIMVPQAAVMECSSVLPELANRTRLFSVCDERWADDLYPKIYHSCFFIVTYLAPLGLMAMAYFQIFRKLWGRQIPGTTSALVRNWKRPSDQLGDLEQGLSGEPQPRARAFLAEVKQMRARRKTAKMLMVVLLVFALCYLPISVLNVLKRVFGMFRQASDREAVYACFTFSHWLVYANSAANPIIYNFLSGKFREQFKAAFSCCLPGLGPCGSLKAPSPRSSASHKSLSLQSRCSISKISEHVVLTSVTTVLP

[21] = Counterscreen for antagonists of the orexin 1 receptor (OX1R; HCRTR1): Fluorescence-based cell-based high throughput dose response assay to identify antagonists of the parental CHO cell line. [Related pubchem assays (depositor defined):AID434989, AID435008, AID463079, AID485270, AID492963, AID492964, AID492965, AID493232, AID504699, AID504701]; type: functional
[22] = target: T7, Orexin/Hypocretin receptor type 1; assay: Fluorescence-based cell-based high throughput dose response assay for antagonists of the orexin 1 receptor (OX1R; HCRTR1). [Related pubchem assays (depositor defined):AID434989, AID435008, AID463079, AID485270, AID492963, AID492964, AID492965, AID493232, AID504717, AID504718]; type: functional
[23] = target: T8, Ubiquitin-conjugating enzyme E2 N (Homo sapiens, UniProt P61088); type: functional
T8 sequence (P61088 whole entry): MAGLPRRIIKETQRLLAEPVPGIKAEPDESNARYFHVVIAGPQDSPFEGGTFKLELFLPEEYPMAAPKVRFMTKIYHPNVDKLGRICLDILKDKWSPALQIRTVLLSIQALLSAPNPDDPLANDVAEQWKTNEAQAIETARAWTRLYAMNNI

[24] = target: T8, Ubiquitin-conjugating enzyme E2 N; type: functional; remark: listed apart in the source
[25] = target: T9, Rac GTPase-activating protein 1 (Homo sapiens, UniProt Q9H0H5); assay: MgcRacGAP GTPase-activating activity inhibitors, confirmation, biochemical, ADP Hunter fluorescence, primary and confirmatory (AID 624330); type: functional
T9 sequence (Q9H0H5 whole entry): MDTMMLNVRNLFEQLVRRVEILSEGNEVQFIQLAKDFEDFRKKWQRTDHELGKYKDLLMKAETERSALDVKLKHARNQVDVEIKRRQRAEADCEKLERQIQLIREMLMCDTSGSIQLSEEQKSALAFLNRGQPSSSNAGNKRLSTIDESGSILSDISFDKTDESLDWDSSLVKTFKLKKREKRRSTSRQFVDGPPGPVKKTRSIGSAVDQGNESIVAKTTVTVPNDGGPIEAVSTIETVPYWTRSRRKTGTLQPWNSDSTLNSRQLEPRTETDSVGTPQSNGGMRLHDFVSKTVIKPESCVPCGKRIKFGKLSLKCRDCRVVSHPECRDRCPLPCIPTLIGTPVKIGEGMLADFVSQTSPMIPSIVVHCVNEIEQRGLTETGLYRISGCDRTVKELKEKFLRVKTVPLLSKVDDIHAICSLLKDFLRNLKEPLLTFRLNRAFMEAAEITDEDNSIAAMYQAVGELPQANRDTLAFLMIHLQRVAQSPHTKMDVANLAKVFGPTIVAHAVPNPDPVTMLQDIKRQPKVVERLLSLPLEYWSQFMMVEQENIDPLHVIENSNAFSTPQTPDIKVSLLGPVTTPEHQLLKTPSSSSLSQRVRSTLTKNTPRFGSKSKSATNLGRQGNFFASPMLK

[26] = target: T10, Bcl-2-related protein A1 (Mus musculus, UniProt Q07440); type: functional;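 also: confirmatory dose–response counterscreen on Bfl-1, used to check hits from a UBC13 polyubiquitin inhibitor campaign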
T10 sequence (Q07440 whole entry): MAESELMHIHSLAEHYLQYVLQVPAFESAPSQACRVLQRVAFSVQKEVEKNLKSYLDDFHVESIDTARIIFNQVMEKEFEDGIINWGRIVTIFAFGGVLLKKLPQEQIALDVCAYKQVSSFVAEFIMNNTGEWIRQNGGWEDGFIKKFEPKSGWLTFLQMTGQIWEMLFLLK

[27] = HeLa cell cytotoxicity, dose response, cytotoxicity control for MgcRacGAP inhibitor project (AID 624300); type: functional

T2 sequence (Q99705 whole entry): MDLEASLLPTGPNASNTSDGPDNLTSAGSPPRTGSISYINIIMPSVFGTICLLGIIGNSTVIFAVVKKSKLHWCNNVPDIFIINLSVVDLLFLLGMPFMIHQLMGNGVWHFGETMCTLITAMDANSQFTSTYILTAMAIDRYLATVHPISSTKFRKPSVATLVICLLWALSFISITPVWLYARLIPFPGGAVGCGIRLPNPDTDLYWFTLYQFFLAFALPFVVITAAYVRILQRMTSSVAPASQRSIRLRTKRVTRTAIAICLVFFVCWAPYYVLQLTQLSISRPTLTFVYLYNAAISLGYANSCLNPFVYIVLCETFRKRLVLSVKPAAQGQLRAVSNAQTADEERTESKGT
T4 sequence (Q00975 whole entry): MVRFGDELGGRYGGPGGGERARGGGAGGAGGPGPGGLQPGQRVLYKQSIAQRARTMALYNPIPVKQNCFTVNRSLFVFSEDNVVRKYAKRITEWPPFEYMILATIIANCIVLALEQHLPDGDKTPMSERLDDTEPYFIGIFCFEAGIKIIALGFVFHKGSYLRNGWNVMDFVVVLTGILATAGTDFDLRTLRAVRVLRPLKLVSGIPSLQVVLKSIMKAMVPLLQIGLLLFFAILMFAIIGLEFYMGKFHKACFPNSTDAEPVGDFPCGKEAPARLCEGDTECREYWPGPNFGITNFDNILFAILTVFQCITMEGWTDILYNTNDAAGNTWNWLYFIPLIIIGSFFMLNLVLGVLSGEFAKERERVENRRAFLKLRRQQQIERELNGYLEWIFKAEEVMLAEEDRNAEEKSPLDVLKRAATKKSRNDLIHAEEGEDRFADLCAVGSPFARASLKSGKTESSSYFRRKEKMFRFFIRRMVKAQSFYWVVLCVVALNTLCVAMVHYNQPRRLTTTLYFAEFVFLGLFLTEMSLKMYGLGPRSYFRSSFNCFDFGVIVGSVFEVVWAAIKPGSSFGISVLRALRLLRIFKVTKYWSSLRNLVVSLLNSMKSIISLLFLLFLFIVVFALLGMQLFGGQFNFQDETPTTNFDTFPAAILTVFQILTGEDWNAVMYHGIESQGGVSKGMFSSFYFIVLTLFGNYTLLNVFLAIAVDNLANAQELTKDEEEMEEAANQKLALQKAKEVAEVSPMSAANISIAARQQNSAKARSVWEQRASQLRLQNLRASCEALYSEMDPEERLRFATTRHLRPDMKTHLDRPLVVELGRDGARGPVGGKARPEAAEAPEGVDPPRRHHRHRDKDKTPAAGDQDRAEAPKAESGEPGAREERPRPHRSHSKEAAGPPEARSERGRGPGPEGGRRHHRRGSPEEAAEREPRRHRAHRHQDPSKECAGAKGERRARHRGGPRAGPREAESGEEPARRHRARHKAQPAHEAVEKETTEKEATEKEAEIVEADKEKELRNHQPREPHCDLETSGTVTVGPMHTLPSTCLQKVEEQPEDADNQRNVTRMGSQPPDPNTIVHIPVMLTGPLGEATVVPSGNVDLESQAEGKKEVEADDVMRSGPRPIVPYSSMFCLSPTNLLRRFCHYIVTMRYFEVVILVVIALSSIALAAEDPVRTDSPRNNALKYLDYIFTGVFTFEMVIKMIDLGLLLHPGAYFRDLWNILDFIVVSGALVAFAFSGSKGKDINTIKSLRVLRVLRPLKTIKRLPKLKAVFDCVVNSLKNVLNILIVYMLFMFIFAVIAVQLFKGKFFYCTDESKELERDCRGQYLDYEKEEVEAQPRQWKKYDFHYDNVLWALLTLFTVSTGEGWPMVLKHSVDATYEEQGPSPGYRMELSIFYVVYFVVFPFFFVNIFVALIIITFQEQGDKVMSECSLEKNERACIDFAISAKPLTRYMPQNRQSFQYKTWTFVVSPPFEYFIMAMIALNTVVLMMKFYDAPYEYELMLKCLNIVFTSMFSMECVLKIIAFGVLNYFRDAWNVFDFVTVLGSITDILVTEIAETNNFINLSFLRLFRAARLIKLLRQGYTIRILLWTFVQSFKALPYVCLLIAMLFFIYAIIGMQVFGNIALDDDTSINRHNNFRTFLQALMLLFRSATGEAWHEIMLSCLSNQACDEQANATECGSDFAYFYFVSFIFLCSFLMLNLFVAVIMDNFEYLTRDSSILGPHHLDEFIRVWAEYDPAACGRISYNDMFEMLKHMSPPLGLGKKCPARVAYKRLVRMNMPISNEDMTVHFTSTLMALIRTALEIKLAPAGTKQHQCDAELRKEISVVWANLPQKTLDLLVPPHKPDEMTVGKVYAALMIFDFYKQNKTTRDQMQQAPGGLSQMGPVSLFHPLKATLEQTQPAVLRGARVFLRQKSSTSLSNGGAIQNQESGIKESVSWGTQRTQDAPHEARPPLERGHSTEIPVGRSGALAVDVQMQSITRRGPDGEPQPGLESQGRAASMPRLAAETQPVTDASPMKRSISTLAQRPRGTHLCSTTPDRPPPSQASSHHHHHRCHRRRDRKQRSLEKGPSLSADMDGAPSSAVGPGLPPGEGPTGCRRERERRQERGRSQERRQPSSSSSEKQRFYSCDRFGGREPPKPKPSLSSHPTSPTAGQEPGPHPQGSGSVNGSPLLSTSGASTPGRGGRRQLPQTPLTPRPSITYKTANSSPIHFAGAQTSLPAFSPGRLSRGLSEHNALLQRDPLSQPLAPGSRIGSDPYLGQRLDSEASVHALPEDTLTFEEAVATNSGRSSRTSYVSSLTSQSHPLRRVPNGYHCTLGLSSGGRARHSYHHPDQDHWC
T4 sequence (Q02410 whole entry): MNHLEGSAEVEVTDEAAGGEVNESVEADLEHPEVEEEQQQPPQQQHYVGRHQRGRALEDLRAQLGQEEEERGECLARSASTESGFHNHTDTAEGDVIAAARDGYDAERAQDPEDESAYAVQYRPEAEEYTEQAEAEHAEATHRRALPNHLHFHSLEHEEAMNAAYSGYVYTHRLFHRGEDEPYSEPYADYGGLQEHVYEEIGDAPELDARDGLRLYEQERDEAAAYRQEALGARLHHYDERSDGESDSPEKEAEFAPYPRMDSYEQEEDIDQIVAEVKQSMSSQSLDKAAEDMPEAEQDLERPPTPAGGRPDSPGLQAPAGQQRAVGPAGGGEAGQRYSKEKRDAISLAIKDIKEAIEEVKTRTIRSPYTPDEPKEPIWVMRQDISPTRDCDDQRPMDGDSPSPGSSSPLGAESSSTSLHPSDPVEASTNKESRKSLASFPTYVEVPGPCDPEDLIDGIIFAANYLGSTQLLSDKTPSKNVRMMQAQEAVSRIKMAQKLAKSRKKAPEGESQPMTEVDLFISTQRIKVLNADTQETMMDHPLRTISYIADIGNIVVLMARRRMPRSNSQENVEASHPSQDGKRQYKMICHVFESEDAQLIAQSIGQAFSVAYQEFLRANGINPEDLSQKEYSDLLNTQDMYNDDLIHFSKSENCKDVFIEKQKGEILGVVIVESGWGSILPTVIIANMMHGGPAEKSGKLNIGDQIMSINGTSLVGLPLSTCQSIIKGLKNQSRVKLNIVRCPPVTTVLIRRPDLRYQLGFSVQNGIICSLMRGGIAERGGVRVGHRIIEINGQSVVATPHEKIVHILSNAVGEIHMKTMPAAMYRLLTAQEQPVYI
Trypsin, sequence (P00761 whole entry): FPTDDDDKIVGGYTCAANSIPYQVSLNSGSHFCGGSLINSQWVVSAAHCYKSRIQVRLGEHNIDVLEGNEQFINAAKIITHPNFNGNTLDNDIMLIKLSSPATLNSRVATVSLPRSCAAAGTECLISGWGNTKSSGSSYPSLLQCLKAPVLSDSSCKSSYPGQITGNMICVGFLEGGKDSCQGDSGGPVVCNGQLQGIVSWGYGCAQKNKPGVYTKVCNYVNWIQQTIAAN

## Cc1ccc(S(=O)(=O)Nc2ccc3c(c2)n(C)c(=O)n3C)cc1
[1]
  IC50: > 80 µM (inactive)

## Cc1ccccc1NC(=O)C1CCCN(c2ncnc3onc(-c4ccc(F)cc4)c23)C1 (stereo not drawn)
[2]
  IC50: > 43.8 µM (not active)
[3]
  IC50: > 43.8 µM (not active)

## Cc1ccc(CN2C(=O)c3ccccc3Sc3ccc(C(=O)NCCCN4CCOCC4)cc32)cc1
[2]
  IC50: 6.89 µM (active)
[3]
  IC50: 10.4 µM (not active)

## Cc1ccccc1-c1cc(C(=O)Nc2sc(C(=O)OC(C)C)c(C)c2C#N)c2ccccc2n1
[4]
  EC50: > 150 µM (not active)
[1]
  IC50: 45.6 µM (inactive)
[5]
  EC50: > 150 µM (not active)
[6]
  EC50: 26 µM (active)
[7]
  IC50: 17.9 µM (active)
[8]
  EC50: 14.6 µM (active)
[9]
  IC50: > 50 µM (inactive)
[10]
  EC50: > 150 µM (inconclusive)
[11]
  EC50: > 29.9 µM (inactive)
[12]
  EC50: > 75 µM (inconclusive)
[13]
  IC50: 0.967 µM (active)
[14]
  EC50: 42.3 µM (active)
[15]
  AC50: 0.246 µM (active)

## CCOc1cc(-c2nc3c(C)cccn3c2NCC2CCCO2)ccc1O.CNC (stereo not drawn)
[16]
  AC50: 12.7 µM (active)
[17]
  AC50: 15.1 µM (active)

## Cc1ccc(C(=O)CSc2nnc(COc3ccccc3)o2)cc1
[1]
  IC50: > 80 µM (inactive)

## COc1ccc(Oc2c(Cl)cnn(-c3ccc(C(C)(C)C)cc3)c2=O)cc1
[18]
  IC50: 2.7 µM (active)

## COc1ccc(Oc2c(-c3cccs3)cnn(-c3ccc(C)cc3)c2=O)cc1
[18]
  IC50: > 20 µM (inactive)

## CN(Cc1c(C(=O)N/N=C/c2cccc(O)c2)nnn1-c1nonc1N)c1ccccc1
[19]
  IC50: > 66.2 µM (inactive)
[20]
  IC50: 1.04 µM (active)
[21]
  IC50: 24.2 µM (inactive)
[22]
  IC50: 5.74 µM (active)

## O=C(c1ccc(OCCN2CCCCC2)cc1)c1c(-c2ccc(O)cc2)sc2cc(O)ccc12 [RALOXIFENE HYDROCHLORIDE]
[23]
  IC50: 14.2 µM (active)
[24]
  IC50: 17.5 µM (active)
[25]
  IC50: 27.8 µM (active)
[26]
  IC50: > 20 µM (inactive)
[15]
  AC50: 1.75 µM (active)
[27]
  CC50: 99.6 µM (active)
